We go through eleven compounds from PMC3493529, “Molecular and Pharmacological Characterization of Serotonin 5-HT2α and 5-HT7 Receptors in the Salivary Glands of the Blowfly Calliphora vicina” (PLoS ONE, 2012).

Test [1] relates to blowfly salivary glands. The experiment in a line: 5-HT-induced TEP response of blowfly salivary glands, antagonists. In kind it is cell-based, Calliphora vicina. Also on record: key to suppression of the positive TEP phase: ++: complete; +: incomplete; -: no apparent effect; -/+: variable effect; key to suppression of the negative TEP phase: ++: high amplitude; +: low amplitude; -: no apparent effect; -/+: variable effect. The following applies: for reversibility / suppression of the negative TEP phase / suppression of the positive TEP phase: TEP response evoked with 10 nM or 30 nM 5-HT. The protocol:
(§1) The abdominal portions of salivary glands were dissected in physiological saline (in mM: 128 NaCl, 10 KCl, 2 CaCl2, 2.7 MgCl2, 3 Na-glutamate, 2.8 maleic acid, 10 D-glucose and 10 Tris-HCl, pH 7.2). Measurements of transepithelial potential (TEP) were performed by the oil-gap method with a DPA-2F differential amplifier (npi Electronic Instruments, Tamm, Germany). Data were sampled and digitized at 1 Hz (KUSB-3102 module for AD-conversion; Keithley, Germering, Germany) by using the software TestPoint (v4.1; Capital Equipment Corp, Billerica, MA, USA) for data acquisition and storage.

For test [2], the target named is T1, Cv5-HT2α (Calliphora vicina, UniProt I7JA47). The experiment in a line: Ca2+ signals (Fluo-4) in Cv5-HT2α-expressing HEK 293 cells, agonists. In kind it is cell-based. As for the experimental part: (§2) We applied a previously established protocol to generate cell lines that constitutively expressed either Cv5-HT2α or Cv5-HT7. […] (flpTM cells, provided by Sibion biosciences GmbH, Jülich, Germany). Approximately 8 µg of the respective expression vectors were introduced into ∼4×10^5 cells by a modified calcium-phosphate method. Stably transfected cells were selected in the presence of the antibiotics Blasticidin (0.1 mg/ml; Cv5-HT2α) or G418 (0.8 mg/ml; Cv5-HT7). Expression of Cv5-HT2α and Cv5-HT7 was monitored by Western blotting with commercially available anti-His antibodies (anti-6x His Epitope Tag; Rockland Immunochemicals Inc, Gilbertsville, USA) and anti-HA antibodies (clone 3F10; Roche, Penzberg, Germany), respectively.
(§3) The ability of Cv5-HT2α to induce Ca^2+ signals in the transfected cell line was measured with the Ca^2+-sensitive dye Fluo-4. Similarly, Cv5-HT7-induced cAMP production was indirectly monitored by the cAMP-dependent activation of the cyclic nucleotide-gated ion channel in flpTM cells (see above). The cyclic nucleotide-gated ion channel is permeable to Ca^2+ ions and thus an increase in [cAMP]i leads to an influx of Ca^2+ ions, which can be detected with Fluo-4. […] After 1 h, the loading solution was substituted for dye-free ES. To inhibit cAMP hydrolysis in Cv5-HT7-expressing cells, ES containing 100 µM isobutylmethylxanthine (IBMX) was used. Plates were transferred into a fluorescence reader (FLUOstar Omega; bmg, Offenburg, Germany) and Fluo-4 fluorescence was monitored. […] Fluorescence emission was detected at 520 nm. Once the basal fluorescence in each well had reached a stable value, various concentrations of the respective ligands were added. The resulting changes in Fluo-4 fluorescence were recorded automatically.

For test [3], the target named is T2, Cv5-HT7 (Calliphora vicina, UniProt I7IA71). The experiment in a line: cAMP-dependent CNG channel Ca2+ influx (Fluo-4) in Cv5-HT7-expressing flpTM cells, agonists. In kind it is cell-based. To be noted: Fluo-4 signal, Cv5-HT7-expressing flpTM cells, 100 µM IBMX. The protocol: as §2, §3
For test [4], the target named is T1, Cv5-HT2α. Put plainly: Inhibition of 5-HT-induced Ca2+ signals in Cv5-HT2α-expressing cells. It is filed as cell-based. The protocol:
as §2, with “Cv5-HT7. For Cv5-HT2α expression, human embryonic kidney cells (HEK 293; ECACC, Salisbury, UK) were chosen.” for “Cv5-HT7.”
(§4) The ability of Cv5-HT2α to induce Ca^2+ signals in the transfected cell line was measured with the Ca^2+-sensitive dye Fluo-4. Similarly, Cv5-HT7-induced cAMP production was indirectly monitored by the cAMP-dependent activation of the cyclic nucleotide-gated ion channel in flpTM cells (see above). The cyclic nucleotide-gated ion channel is permeable to Ca^2+ ions and thus an increase in [cAMP]i leads to an influx of Ca^2+ ions, which can be detected with Fluo-4. Cells were grown in 96-well plates to a density of ∼3×10^4 (Cv5-HT2α) or 1.5×10^4 (Cv5-HT7) and then incubated in extracellular solution (ES in mM: 120 NaCl, 5 KCl, 2 CaCl2, 2 MgCl2, 10 glucose, 10 HEPES, pH 7.4) containing 3 mM probenecid, 0.02% (w/v) Pluronic® F-127 (Sigma) and 2 µM Fluo-4AM (Invitrogen). After 1 h, the loading solution was substituted for dye-free ES. To inhibit cAMP hydrolysis in Cv5-HT7-expressing cells, ES containing 100 µM isobutylmethylxanthine (IBMX) was used. Plates were transferred into a fluorescence reader (FLUOstar Omega; bmg, Offenburg, Germany) and Fluo-4 fluorescence was monitored. The excitation wavelength was 485 nm. Fluorescence emission was detected at 520 nm. Once the basal fluorescence in each well had reached a stable value, various concentrations of the respective ligands were added. The resulting changes in Fluo-4 fluorescence were recorded automatically.
(§5) Changes in Ca^2+-dependent Fluo-4 signals were registered automatically. Data represent the means±SD of eight replicates. […] Relative fluorescence (%) is normalized to the values obtained with 100 nM 5-HT in the absence of antagonists. […] Relative fluorescence (%) is normalized to the values obtained with 6 nM 5-HT in the absence of antagonists.

The target of test [5] is T2, Cv5-HT7. Put plainly: Inhibition of 5-HT-induced Fluo-4 signals in Cv5-HT7-expressing cells. In kind it is cell-based. As for the experimental part: as §2, with “Cv5-HT7. For Cv5-HT2α expression, human embryonic kidney cells (HEK 293; ECACC, Salisbury, UK) were chosen.” for “Cv5-HT7.”
as §4, §5

Test [6] relates to blowfly salivary glands. The experiment in a line: Transepithelial potential (TEP) of blowfly salivary glands, agonists. More on the design: key to negative TEP phase / positive TEP phase: ++: high amplitude; +: low amplitude; -: no apparent effect; -/+: variable effect. It is filed as cell-based, Calliphora vicina. As for the experimental part: as §1
[7] abbreviates: in the presence of 100 nM 5-HT, read-out: Cv5-HT2α IC50.
Where [8] appears, read: in the presence of 100 nM 5-HT, read-out: Cv5-HT2α log IC50 (converted).
Setting [9] is: in the presence of 6 nM 5-HT, read-out: Cv5-HT7 IC50.
The mark [10] stands for this setting: in the presence of 6 nM 5-HT, read-out: Cv5-HT7 log IC50 (converted).

Structures can show the parent of a compound that is named as a salt. Where two headings read alike, the source gives them in different places.

T1 sequence (I7JA47 entry or part of it): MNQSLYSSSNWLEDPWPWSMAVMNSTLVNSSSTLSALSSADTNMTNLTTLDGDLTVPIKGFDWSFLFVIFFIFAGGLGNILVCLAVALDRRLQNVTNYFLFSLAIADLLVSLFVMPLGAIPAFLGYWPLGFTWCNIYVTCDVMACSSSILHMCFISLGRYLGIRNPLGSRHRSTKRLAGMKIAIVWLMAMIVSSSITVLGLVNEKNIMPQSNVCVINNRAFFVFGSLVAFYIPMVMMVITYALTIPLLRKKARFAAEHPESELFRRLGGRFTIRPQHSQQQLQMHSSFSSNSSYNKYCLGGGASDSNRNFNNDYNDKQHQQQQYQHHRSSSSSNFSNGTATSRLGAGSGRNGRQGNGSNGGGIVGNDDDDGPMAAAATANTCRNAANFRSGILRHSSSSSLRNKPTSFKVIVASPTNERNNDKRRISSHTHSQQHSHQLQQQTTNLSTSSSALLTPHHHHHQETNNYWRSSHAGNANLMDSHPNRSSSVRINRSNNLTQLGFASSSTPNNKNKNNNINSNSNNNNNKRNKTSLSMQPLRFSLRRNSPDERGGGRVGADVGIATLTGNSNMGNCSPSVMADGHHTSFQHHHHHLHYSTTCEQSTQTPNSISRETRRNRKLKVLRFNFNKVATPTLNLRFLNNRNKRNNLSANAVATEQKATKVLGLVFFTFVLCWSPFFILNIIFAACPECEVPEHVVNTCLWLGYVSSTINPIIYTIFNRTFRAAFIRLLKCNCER
T2 sequence (I7IA71 entry or part of it): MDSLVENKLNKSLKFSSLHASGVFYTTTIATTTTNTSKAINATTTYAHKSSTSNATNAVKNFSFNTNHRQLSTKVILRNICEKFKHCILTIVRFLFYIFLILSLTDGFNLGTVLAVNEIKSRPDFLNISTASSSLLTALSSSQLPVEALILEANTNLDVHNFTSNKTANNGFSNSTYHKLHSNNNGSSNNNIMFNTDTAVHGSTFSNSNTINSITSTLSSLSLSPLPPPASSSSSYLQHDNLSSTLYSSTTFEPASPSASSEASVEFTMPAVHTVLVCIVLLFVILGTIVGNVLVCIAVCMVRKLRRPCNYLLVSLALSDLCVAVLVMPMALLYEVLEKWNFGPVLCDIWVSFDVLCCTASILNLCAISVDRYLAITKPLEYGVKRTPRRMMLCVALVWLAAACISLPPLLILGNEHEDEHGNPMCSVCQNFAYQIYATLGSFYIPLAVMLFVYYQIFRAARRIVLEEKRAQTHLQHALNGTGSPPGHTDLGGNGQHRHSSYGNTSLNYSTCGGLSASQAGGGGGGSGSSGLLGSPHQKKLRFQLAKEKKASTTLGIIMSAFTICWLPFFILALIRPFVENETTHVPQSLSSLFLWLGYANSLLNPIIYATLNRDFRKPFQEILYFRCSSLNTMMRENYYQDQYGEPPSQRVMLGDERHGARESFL

For the compound `CN1CCN(C2=Nc3cc(Cl)ccc3Nc3ccccc32)CC1` [clozapine], the “effect on 5-HT-induced TEP response” value in test [1] (1 µM, 30 nM 5-HT) was “completely and selectively inhibited the positive TEP phase”. Also, in test [1] (1 µM), the reversibility result was “yes”, the “suppression of the negative TEP phase” value was “-” and the “suppression of the positive TEP phase” value is on record as “++”.
Consider `CCCN(CCC)C1CCc2cccc(O)c2C1` (racemic) [8-OH-DPAT, (+/−)-8-hydroxy-2-(dipropylamino)tetralin], for which the EC50 (as a rule, the concentration that produces a half-maximal response) is 62 µM in test [2] (Cv5-HT2α EC50, Ca2+-dependent Fluo-4 signal, Cv5-HT2α-expressing HEK 293 cells); 61.7 µM in test [2] (Cv5-HT2α log EC50, Ca2+-dependent Fluo-4 signal, Cv5-HT2α-expressing HEK 293 cells); 7.9 µM in test [3] (read-out: Cv5-HT7 EC50); 7.94 µM in test [3] (read-out: Cv5-HT7 log EC50 (converted)).
With `CN(C)CCCSc1ccccc1NC(=O)/C=C/c1ccccc1` [cinanserin, cinanserin hydrochloride], in test [1] (10 µM), the “effect on 5-HT-induced TEP response” value is listed as “reversibly but incompletely inhibited the positive phase”, the reversibility entry is on record as “yes”, the “suppression of the negative TEP phase” value is listed as “-” and the “suppression of the positive TEP phase” value was “+”. Moreover, the IC50 (commonly the concentration that inhibits the measured activity by half) in test [4] (setting [7]) worked out at 30 µM. The IC50 in test [4] (setting [8]) is 29.5 µM. The IC50 in test [5] (setting [9]) was determined as 0.4 µM. Further, the half-inhibitory concentration (IC50) in test [5] (setting [10]) is 0.398 µM.
As for `NCCc1c[nH]c2ccc(C(N)=O)cc12` [5-CT, 5-carboxamidotryptamine], the “Cv5-HT2α log EC50” value in test [2] (Ca2+-dependent Fluo-4 signal, Cv5-HT2α-expressing HEK 293 cells) is on record as −4.29±0.05. Further, the EC50 in test [2] (Ca2+-dependent Fluo-4 signal, Cv5-HT2α-expressing HEK 293 cells, read-out: Cv5-HT2α EC50) came out at 51 µM; in test [3] (read-out: Cv5-HT7 EC50) it was 0.43 µM. Moreover, the figures for the “TEP change of salivary glands” value in test [6] (0.3 µM) and in test [6] (concentrations 1 µM) were “only a positive-going TEP change” and “biphasic TEP response”, respectively. For the same compound, the “negative TEP phase” value in test [6] (0.3 µM) is listed as “-”; in test [6] (10 µM), “++”. In addition, the “positive TEP phase” value is “+” in test [6] (0.3 µM) and “++” in test [6] (10 µM). Also, the reversibility result in test [6] (0.3 µM) and in test [6] (10 µM) was “yes” in each case. In test [3], the “Cv5-HT7 log EC50” value is −6.37±0.02.
For `CC1CCN(CC[C@H]2CCCN2S(=O)(=O)c2cccc(O)c2)CC1` [SB-269970], in test [4] (in the presence of 100 nM 5-HT), the “Cv5-HT2α log IC50” value is recorded as −4.27±0.30. The concentration for half-maximal inhibition (IC50) in test [4] (setting [7]) came out at 53 µM. Also, in test [5] (in the presence of 6 nM 5-HT), the “Cv5-HT7 log IC50” value is given as −8.06±0.21 and the “inhibitory efficacy at Cv5-HT7 (reduction of the 5-HT-evoked cellular response)” value is given as approximately 15%. Also, the IC50 in test [5] (setting [9]) stood at 0.009 µM.
`O=C(CCCN1CCC2(CC1)C(=O)NCN2c1ccccc1)c1ccc(F)cc1` [spiperone]: in test [1] (1-10 µM), the reversibility result is “yes”, the “suppression of the negative TEP phase” value is listed as “-” and the “suppression of the positive TEP phase” value is recorded as “+”. The “effect on 5-HT-induced TEP response” value in test [1] (1–10 µM) is listed as “reversibly but incompletely inhibited the positive phase”. For the same compound, in test [4] (in the presence of 100 nM 5-HT), the “Cv5-HT2α IC50” value is “no effect” and the “Cv5-HT2α log IC50” value is given as “no effect”. Further, the IC50 in test [5] (setting [9]) was determined as 0.28 µM. Besides, the IC50 in test [5] (setting [10]) is 0.275 µM.
Regarding `O=C(c1ccc(F)cc1)C1CCN(CCn2c(=O)[nH]c3ccccc3c2=O)CC1` [ketanserin], the half-maximal inhibitory concentration (IC50) was 14 µM in test [4] (setting [7]), 14.1 µM in test [4] (setting [8]), 1.5 µM in test [5] (setting [9]) and 1.45 µM in test [5] (setting [10]).
On to `CSc1ccc2c(c1)C(N1CCN(C)CC1)Cc1ccccc1S2` (stereo not drawn) [methiothepin], for which, in test [1] (3 µM), the reversibility result is reported as “no”, the “suppression of the negative TEP phase” value is “-/+” and the “suppression of the positive TEP phase” value is “++”. For the same compound, in test [1] (≥1 µM), the “effect on 5-HT-induced TEP response” value was “completely abolished the positive TEP phase”. Besides, in test [4] (in the presence of 100 nM 5-HT), the “Cv5-HT2α log IC50” value was −5.92±0.06. The 50% inhibitory concentration (IC50) in test [4] (setting [7]) was 1.2 µM. Moreover, in test [5] (high concentrations (10 µM)), the “antagonistic effect on Cv5-HT7” value is listed as “slight antagonistic effect”. In test [5] (in the presence of 6 nM 5-HT), the “Cv5-HT7 IC50” value is “not calculable” and the “Cv5-HT7 log IC50” value is on record as “not calculable”.
As for `NCCc1c[nH]cn1` [histamine], the “effect on [Ca2+]i in Cv5-HT2α-expressing cells” value in test [2] (1 µM biogenic amine, non-transfected cells as control) was “stimulated Ca^2+ signals”.
As to `Cc1ccc(N(CC2=NCCN2)c2cccc(O)c2)cc1` [phentolamine], the IC50 is 198 µM in test [4] (setting [7]), 200 µM in test [4] (setting [8]), 4.7 µM in test [5] (setting [9]) and 4.68 µM in test [5] (setting [10]).
Consider `COC(=O)[C@@H]1[C@H]2C[C@H]3c4[nH]c5ccccc5c4CCN3C[C@@H]2CC[C@@H]1O` [yohimbine], for which the IC50 was 2.9 µM in test [4] (Cv5-HT2α IC50, in the presence of 100 nM 5-HT); 2.88 µM in test [4] (Cv5-HT2α log IC50, in the presence of 100 nM 5-HT); 192 µM in test [5] (Cv5-HT7 IC50, in the presence of 6 nM 5-HT); 191 µM in test [5] (Cv5-HT7 log IC50, in the presence of 6 nM 5-HT).
